Test results: US20250282785A1, “PYRROLIDINONE DERIVATIVES AS INHIBITORS OF NF KAPPA B INDUCING KINASE” (priority 2022, published 2025)

What was measured:
[1] = tested on: p-IKKα levels in L363 (NIK translocated multiple myeloma) cells; test: Effect of compounds on p-IKKα levels in L363 cells (AlphaLISA SureFire Ultra); assay type: cell-based; settings: Homo sapiens, L-363; L363 cells, BAFF stimulated, MG132, 6 h; average of values; read-out: Assay 2 IC50
Outline: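 L363 myeloma cells were BAFF-stimulated (250 ng/ml) overnight in DMEM/0.5% BSA, then exposed 6 h at 37° C to compound (11-point 1:3 series, 0.3% DMSO) with BAFF plus 10 uM MG132. p-IKKα (Ser 176/180) was read by AlphaLISA SureFire Ultra in lysates. IC50 came from sigmoidal fits normalized to stimulated and unstimulated controls.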

[2] = target: Recombinant Human NF-Kappab-Inducing Kinase (NIK/MAP3K14) (Homo sapiens, UniProt Q99558); test: Inhibition of auto-phosphorylation of recombinant human NIK/MAP3K14 (AlphaScreen); assay type: biochemical; settings: NIK/MAP3K14 auto-phosphorylation, 5 microM ATP, 1 nM enzyme, 2 h at 25° C.; average of values; read-out: Assay 1 IC50
Sequence of Recombinant Human NF-Kappab-Inducing Kinase (NIK/MAP3K14) (Q99558 whole entry): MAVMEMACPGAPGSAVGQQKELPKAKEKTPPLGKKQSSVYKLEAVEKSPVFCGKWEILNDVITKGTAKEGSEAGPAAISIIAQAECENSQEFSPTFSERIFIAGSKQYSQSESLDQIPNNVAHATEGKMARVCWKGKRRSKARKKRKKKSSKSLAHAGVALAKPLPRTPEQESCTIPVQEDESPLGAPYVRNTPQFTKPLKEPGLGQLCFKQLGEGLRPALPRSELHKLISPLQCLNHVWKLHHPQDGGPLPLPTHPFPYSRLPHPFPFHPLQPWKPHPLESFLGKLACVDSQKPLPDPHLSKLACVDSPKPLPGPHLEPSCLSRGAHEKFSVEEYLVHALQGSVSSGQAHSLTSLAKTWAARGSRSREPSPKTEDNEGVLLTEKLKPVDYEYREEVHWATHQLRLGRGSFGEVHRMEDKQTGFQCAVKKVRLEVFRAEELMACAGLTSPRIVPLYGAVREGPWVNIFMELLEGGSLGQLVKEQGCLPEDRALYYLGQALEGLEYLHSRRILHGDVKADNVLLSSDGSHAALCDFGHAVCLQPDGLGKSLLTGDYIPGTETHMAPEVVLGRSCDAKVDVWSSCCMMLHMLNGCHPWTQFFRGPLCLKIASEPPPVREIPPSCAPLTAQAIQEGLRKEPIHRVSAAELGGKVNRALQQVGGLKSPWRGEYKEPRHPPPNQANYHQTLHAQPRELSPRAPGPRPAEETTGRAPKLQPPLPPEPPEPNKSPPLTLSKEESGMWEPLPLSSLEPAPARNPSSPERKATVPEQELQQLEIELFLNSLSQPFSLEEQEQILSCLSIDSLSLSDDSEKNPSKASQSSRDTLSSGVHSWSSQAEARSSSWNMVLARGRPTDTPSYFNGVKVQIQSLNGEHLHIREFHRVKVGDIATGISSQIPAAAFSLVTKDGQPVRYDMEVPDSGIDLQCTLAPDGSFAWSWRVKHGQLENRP
Outline: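 GST-tagged NIK (1 nM) auto-phosphorylation with 5 µM ATP in Tris pH 7.5/MgCl2 buffer, 0.7% DMSO, 2 h at 25 °C. Phospho-IKK Ser176/180 antibody detected by AlphaScreen beads. Signal normalized to full-enzyme and no-ATP controls; IC50 from sigmoidal fit of % inhibition vs log concentration.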

SMILES | IC50 [1] | IC50 [2]
CN1CCC(O)(c2cc(-c3cccc(-c4nccc(C(N)=O)n4)c3)on2)C1=O (racemic) [Example 161, (R,S)-2-(3-(3-(3-Hydroxy-1-methyl-2-oxopyrrolidin-3-yl)isoxazol-5-yl)phenyl)pyrimidine-4-carboxamide] | > 501 nM | < 100 nM
[2H]c1nc(N)c2nc(-c3cccc(-c4cc([C@@]5(O)CCN(C)C5=O)nn4C)c3)ccc2n1 (single isomer, unassigned) [Example 44] | > 501 nM | > 501 nM
CN1CC[C@@](O)(c2cc(-c3cccc(-c4ncc(NC5COC5)c(C(N)=O)n4)c3)no2)C1=O [Example 105, (R)-2-(3-(5-(3-Hydroxy-1-methyl-2-oxopyrrolidin-3-yl)isoxazol-3-yl)phenyl)-5-(oxetan-3-ylamino)pyrimidine-4-carboxamide] | < 100 nM | < 100 nM
Cc1cc(-c2cccc(-c3cc([C@@]4(O)CCN(C)C4=O)on3)c2)nc2c(N)ncnc12 [Example 27, (S)-3-(3-(3-(4-Amino-8-methylpyrido[3,2-d]pyrimidin-6-yl)phenyl)isoxazol-5-yl)-3-hydroxy-1-methylpyrrolidin-2-one] | > 501 nM | > 501 nM
Cc1ccc(C(N)=O)nc1-c1cccc(-c2cc([C@]3(O)CCN(C)C3=O)on2)c1 [Example 156, (R)-6-(3-(5-(3-hydroxy-1-methyl-2-oxopyrrolidin-3-yl)isoxazol-3-yl)phenyl)-5-methylpicolinamide] | > 501 nM | 100 to 500 nM
CN1CC[C@@](O)(c2cc(-c3cccc(-c4cc5c(o4)CCNC5=O)c3)no2)C1=O [Example 56, (R)-2-(3-(5-(3-hydroxy-1-methyl-2-oxopyrrolidin-3-yl)isoxazol-3-yl)phenyl)-6,7-dihydrofuro[3,2-c]pyridin-4(5H)-one] | > 501 nM | > 501 nM
CN1CC[C@@](O)(c2cc(-c3ccnc(N4CCc5ccnc(N)c5C4)c3)no2)C1=O [Example 20, (R)-3-(3-(2-(8-Amino-3,4-dihydro-2,7-naphthyridin-2(1H)-yl)pyridin-4-yl)isoxazol-5-yl)-3-hydroxy-1-methylpyrrolidin-2-one] | > 501 nM | 100 to 500 nM
CN1CC[C@@](O)(c2cc(-c3ccc(F)c(-c4cc(C(F)(F)F)cc(C(N)=O)n4)c3)no2)C1=O [Example 240, (R)-6-(2-Fluoro-5-(5-(3-hydroxy-1-methyl-2-oxopyrrolidin-3-yl)isoxazol-3-yl)phenyl)-4-(trifluoromethyl)picolinamide] | > 501 nM | < 100 nM
CN1CC[C@@](O)(c2cc(-c3cccc(-c4cccc(C(N)=O)n4)c3)no2)C1=O [Example 148, (R)-6-(3-(5-(3-Hydroxy-1-methyl-2-oxopyrrolidin-3-yl)isoxazol-3-yl)phenyl)picolinamide] | > 501 nM | < 100 nM
CC(C)N1CCn2c(-c3cccc(-c4cc([C@]5(O)CCN(C)C5=O)on4)c3)nc(C(N)=O)c2C1 [Example 233, (R)-3-(3-(5-(3-Hydroxy-1-methyl-2-oxopyrrolidin-3-yl)isoxazol-3-yl)phenyl)-7-isopropyl-5,6,7,8-tetrahydroimidazo[1,5-a]pyrazine-1-carboxamide] | > 501 nM | > 501 nM
CN1CC[C@@](O)(c2cc(-c3ccnc(-c4cccc(C(N)=O)n4)c3)no2)C1=O [Example 168, (R)-4′-(5-(3-Hydroxy-1-methyl-2-oxopyrrolidin-3-yl)isoxazol-3-yl)-[2,2′-bipyridine]-6-carboxamide] | > 501 nM | < 100 nM
CN1CC[C@@](O)(c2cc(-c3ccc(F)c(-c4ncc(NC5COC5)c(C(N)=O)n4)c3)no2)C1=O [Example 121, (R)-2-(2-Fluoro-5-(5-(3-hydroxy-1-methyl-2-oxopyrrolidin-3-yl)isoxazol-3-yl)phenyl)-5-(oxetan-3-ylamino)pyrimidine-4-carboxamide] | 100 to 500 nM | < 100 nM
CN1CC[C@@](O)(c2cc(-c3cccc(-c4ncc(N)c(C(N)=O)n4)c3)no2)C1=O [Example 135, (R)-5-Amino-2-(3-(5-(3-Hydroxy-1-methyl-2-oxopyrrolidin-3-yl)isoxazol-3-yl)phenyl)pyrimidine-4-carboxamide] | < 100 nM | < 100 nM
CN1CC[C@@](O)(c2cc(-c3cccc(-c4nc(C(N)=O)n5ccccc45)c3)no2)C1=O [Example 23, (R)-1-(3-(5-(3-Hydroxy-1-methyl-2-oxopyrrolidin-3-yl)isoxazol-3-yl)phenyl)imidazo[1,5-a]pyridine-3-carboxamide] | < 100 nM | < 100 nM
COc1cc(-c2cccc(-c3cc([C@]4(O)CCN(C)C4=O)on3)c2)nc2c1c(C)nn2C [Example 230, (R)-3-Hydroxy-3-(3-(3-(4-methoxy-1,3-dimethyl-1H-pyrazolo[3,4-b]pyridin-6-yl)phenyl)isoxazol-5-yl)-1-methylpyrrolidin-2-one] | > 501 nM | 100 to 500 nM
CN1CC[C@@](O)(c2cc(-c3cccc(-c4cc(C(N)=O)ccn4)n3)no2)C1=O [Example 198, (R)-6′-(5-(3-Hydroxy-1-methyl-2-oxopyrrolidin-3-yl)isoxazol-3-yl)-[2,2′-bipyridine]-4-carboxamide] | > 501 nM | 100 to 500 nM
Cc1nc(-c2cc(-c3cc([C@@]4(O)C(=O)N(C)CC4(F)F)on3)cc(F)c2F)nc2c(N)ncnc12 [Example 123, (R)-3-(3-(3-(8-amino-4-methylpyrimido[5,4-d]pyrimidin-2-yl)-4,5-difluorophenyl)isoxazol-5-yl)-4,4-difluoro-3-hydroxy-1-methylpyrrolidin-2-one] | 100 to 500 nM | < 100 nM
CN1CC[C@@](O)(c2cc(-c3cccc(-n4nc(C(N)=O)c5cc(-c6ccn(C)n6)ccc54)c3)no2)C1=O [Example 99, (R)-1-(3-(5-(3-Hydroxy-1-methyl-2-oxopyrrolidin-3-yl)isoxazol-3-yl)phenyl)-5-(1-methyl-1H-pyrazol-3-yl)-1H-indazole-3-carboxamide] | < 100 nM | < 100 nM
CN1CC[C@@](O)(c2cc(-c3cccc(-c4cccc5cnc(N)nc45)c3)no2)C1=O [Example 86, (R)-3-(3-(3-(2-Aminoquinazolin-8-yl)phenyl)isoxazol-5-yl)-3-hydroxy-1-methylpyrrolidin-2-one] | > 501 nM | < 100 nM
[2H]c1nc(N)c2nc(-c3cccc(-c4ncc([C@@]5(O)CCN(C)C5=O)o4)c3)ccc2n1 (single isomer, unassigned) [Example 40] | > 501 nM | > 501 nM
CN1CC[C@@](O)(c2cc(-c3cccc(-c4nc(C(N)=O)n5c4CCCC5)c3)no2)C1=O [Example 93, (R)-1-(3-(5-(3-Hydroxy-1-methyl-2-oxopyrrolidin-3-yl)isoxazol-3-yl)phenyl)-5,6,7,8-tetrahydroimidazo[1,5-a]pyridine-3-carboxamide] | < 100 nM | < 100 nM
CC(=O)Nc1cc(-c2cccc(-c3cc([C@]4(O)CCN(C)C4=O)on3)c2)ccn1 [Example 54, (R)—N-(4-(3-(5-(3-Hydroxy-1-methyl-2-oxopyrrolidin-3-yl)isoxazol-3-yl)phenyl)pyridin-2-yl)acetamide] | > 501 nM | 100 to 500 nM
Cc1nc(N)c2nc(-c3cccc(-c4cc([C@]5(O)CCN(C)C5=O)on4)c3)ccc2n1 [Example 1, (R)-3-(3-(3-(4-Amino-2-methylpyrido[3,2-d]pyrimidin-6-yl)phenyl)isoxazol-5-yl)-3-hydroxy-1-methylpyrrolidin-2-one] | 100 to 500 nM | < 100 nM
